These results are taken from patent US8299066B2, “Compounds having NPY Y5 receptor antagonistic activity” (Shionogi & Co., Ltd., priority 2008, dated 2012).

In one data set the target is T1, mouse NPY Y5 receptor (Mus musculus, UniProt O70342).
T1 construct: expressed in transfected cells
T1 sequence (O70342 1-466): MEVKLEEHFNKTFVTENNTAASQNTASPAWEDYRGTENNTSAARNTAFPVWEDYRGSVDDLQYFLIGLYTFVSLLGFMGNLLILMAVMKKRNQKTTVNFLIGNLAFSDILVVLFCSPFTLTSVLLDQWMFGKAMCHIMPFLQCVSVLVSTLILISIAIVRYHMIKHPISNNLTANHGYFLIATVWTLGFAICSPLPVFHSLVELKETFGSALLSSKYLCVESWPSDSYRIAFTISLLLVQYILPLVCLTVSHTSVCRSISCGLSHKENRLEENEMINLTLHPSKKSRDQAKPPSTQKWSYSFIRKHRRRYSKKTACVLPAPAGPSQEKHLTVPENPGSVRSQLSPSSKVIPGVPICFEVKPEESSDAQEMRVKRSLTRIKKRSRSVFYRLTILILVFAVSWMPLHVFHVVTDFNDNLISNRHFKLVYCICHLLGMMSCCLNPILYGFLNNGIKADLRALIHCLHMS
The data set is described as follows: Affinity for mouse NPY Y5 receptor ([125I] peptide YY binding, CHO cell membranes). To be noted: inhibition of specific [125I] peptide YY binding, membranes of CHO cells expressing mouse NPY Y5 receptor. An excerpt: cDNA sequence encoding a mouse NPY Y5 receptor (Biochim. Biophys. Acta 1328:83-89, 1997) was cloned in a vector (pME18S, Takebe et al. Mol. Cell. Biol. 8, 8957). The obtained expression vector was transfected into CHO cells as a host by using Lipofect AMINE Reagent (Trademark, Gico BRL Co., Ltd.) according to the instruction manual. The cells that stably express NPY Y5 receptor were obtained.
The membranes prepared from the CHO cells expressing NPY Y5 receptor, the compound of this invention and 30,000 cpm [^125I] peptide YY (60 pM of final concentration: Amersham) were incubated in the assay buffer (20 mM HEPES-Hanks buffer containing 0.1% bovine serum albumin, pH 7.4) at 25° C. for 2 hours, and then the membrane was filtered from the mixture through a glass filter (GF/C) presoaked with 1% polyethyleneimine. After washing with 50 mM Tris-HCl buffer (pH 7.4), radioactivity retained on the filters was quantified with a gamma counter. Nonspecific binding was defined as the amount of radioactivity bound to the membranes after incubation in the presence of 200 nM of peptide YY. The 50% inhibitory concentration of the test compound against the specific peptide YY binding (IC50 value) was calculated (Inui, A. et al. Endocrinology 131, 2090-2096 (1992)).

A short description of data set [1]: Evaluation for brain penetration in mice (cassette dosing). The data set is classed as in vivo. To be noted: male, Jcl; C57BL/6J, mouse; brain/plasma partition coefficient, 3 or 5 hours after oral administration (2 mg/10 mL/kg) in mice. The procedure:
(§1) By using the cassette dosing method (Drug. Metab. Dispos. (2001); 29, 957-966), brain penetration rate of the compounds (brain/plasma partition coefficients; Kp) were evaluated from plasma and brain concentrations at 30 minutes after intravenous administration (0.5 mg/mL/kg) in rats (Crl; CD (SD), ♂, 8 weeks) or at 3 or 5 hours after oral administration (2 mg/10 mL/kg) in mice (Jcl; C57BL/6J, ♂, 8 weeks).

A short description of data set [2]: Evaluation for brain penetration in rats (cassette dosing). The data set is classed as in vivo. To be noted: male, Crl; CD (SD), rat; brain/plasma partition coefficient, 30 minutes after intravenous administration (0.5 mg/mL/kg) in rats. The procedure: as §1
A short description of data set [3]: Pharmacokinetic analysis in rats (cassette dosing, intravenous). In kind it is in vivo. Particulars: male, Crl, CD (SD), rat, plasma, intravenous administration (0.5 mg/mL/kg); for clearance: read-out: Rat CLtot; for half-life: read-out: Rat t½ (converted). The procedure: By using the cassette dosing method, half-life (t1/2) and total clearance (CLtot) of the compounds of this invention were estimated from change in plasma concentration of each compound in rats (Crl; CD (SD), ♂, 8 weeks) after intravenous administration (0.5 mg/mL/kg).

A further data set concerns the target T2, NPY Y5 receptor (Mus musculus, UniProt O70342).
T2 construct: from tissue
T2 sequence (O70342 1-466): T1 sequence (O70342 1-466)
Briefly: Food intake in mice induced by ICV NPY Y5 receptor specific agonist. The data set is classed as in vivo. The procedure: Under diethylether anesthesia the skull of male C57BL/6J mice (12-14 week old, 25-30 g) was exposed by making an incision about 1-cm long from external occipital crest to nasal dorsum, and drilled in the 1-mm lateral position to the left following 1-mm posterior from bregma. After recovery from anesthesia mice were dosed with either 0.5% hydroxypropylmethyl cellulose solution (Shin-Etsu Chemical Co., Ltd) or the compounds of this invention suspended in the 0.5% hydroxypropylmethyl cellulose solution. At one hour after the treatment, each animal received a NPY Y5 receptor specific agonist, [cPP^1-7, NPY^19-23, Ala^31, Aib^32, Gln^34]-hPancreatic Polypeptide (0.1 nmol/1.5 μL/mouse) through the skull opening using a canula. Residual food was measured at 2 and 4 hours after the treatment, and the difference in food intake between the compounds-treated mice and 0.5% hydroxypropylmethyl cellulose solution-treated mice was calculated. The compound at 6 mg/kg caused a significant reduction in food intake of mice compared to the treatment with 0.5% hydroxypropylmethyl cellulose solution.
For example, mean food intakes at 2 and 4 hours after oral administration of Compound IVa-9 at 6 mg/kg in mice (Group A) were 0.24±0.05 g and 0.51±0.06 g, respectively. On the other hand, mean food intakes at 2 and 4 hours after oral administration of 0.5% hydroxypropylmethyl cellulose solution in mice (Group B) were 0.58±0.07 g and 1.26±0.10 g, respectively. Also, mean food intakes at 2 and 4 hours after oral administration of 0.5% hydroxypropylmethyl cellulose solution without ICV injection of NPY Y5 receptor specific agonist in mice (Group C) were 0.06±0.04 g and 0.14±0.05 g, respectively. After subtracting the mean value of Group C from that of Group A or B, the inhibition rates of the compound on food intake at 2 and 4 hours after administration in Group A against Group B were estimated.

By IC50 is commonly meant the concentration that inhibits the measured activity by half. Turning to `CC(C)(C)S(=O)(=O)N[C@H]1CC[C@H](c2nc(-c3ccccc3)c[nH]2)CC1` [IIIa-1], the IC50 at mouse NPY Y5 receptor amounted to 0.85 nM.
What is called Kp is the ratio of the level in a tissue or fluid to that in plasma or blood. In turn, `CC(C)(C)S(=O)(=O)N[C@H]1CC[C@H](c2nc(-c3ccc(Cl)c(Cl)c3)c[nH]2)CC1` [IIIa-4] showed a Kp at 5 h in data set [1] of 0.45. Besides, the partition ratio (Kp) at 0.5 h in data set [2] is 1.37. In data set [3], the clearance amounted to 0.888 L/h/kg and the half-life was 2.96 h.
As to `CC(C)(C)S(=O)(=O)N[C@H]1CC[C@H](c2nc(-c3cccc(C#N)c3)c[nH]2)CC1` [IIIa-13], in data set [3], the clearance is 0.87 L/h/kg and the half-life was 1.17 h.
For `CC(C)(C)S(=O)(=O)N[C@H]1CC[C@H](c2nc(-c3ccccc3)c(Cl)[nH]2)CC1` [IIIb-1], in that order: 0.208 L/h/kg and 4.04 h.
Regarding `CC(C)(C)S(=O)(=O)N[C@H]1CC[C@H](c2nc(-c3ccccc3)c(C(F)(F)F)[nH]2)CC1` [IIIb-5], in data set [3], the clearance is 0.23 L/h/kg and the half-life is 7.67 h.
Regarding `COc1cccc(-c2nc([C@H]3CC[C@H](NS(=O)(=O)C(C)(C)C)CC3)[nH]c2C(F)(F)F)c1` [IIIb-7], the IC50 on mouse NPY Y5 receptor came out at 0.7 nM.
For `CC(C)(C)S(=O)(=O)N[C@H]1CC[C@H](c2[nH]cc(-c3ccccc3)c2C#N)CC1` [IIa-3], the IC50 at mouse NPY Y5 receptor was 0.22 nM.
Take `CC(C)(C)S(=O)(=O)N[C@H]1CC[C@H](c2cc(-c3ccccc3)n[nH]2)CC1` [IVa-3]: the IC50 on mouse NPY Y5 receptor was found to be 1.4 nM. The Kp at 5 h in data set [1] amounted to 1.78. In data set [2], this molecule came in with a Kp at 0.5 h of 3.69. In data set [3], the clearance worked out at 0.446 L/h/kg and the half-life was 3.82 h.
Molecule `CC(C)(C)S(=O)(=O)N[C@H]1CC[C@H](c2cc(-c3ccc(F)cc3)n[nH]2)CC1` [IVa-9] showed a Kp at 5 h in data set [1] of 2.41. This molecule also came in with a Kp at 0.5 h in data set [2] of 2.28. For the same molecule, the “inhibition rate on food intake at 2 hours” value at NPY Y5 receptor (6 mg/kg oral, Group A against Group B after subtracting Group C, 2 hours) was 65.4%. Further, the “inhibition rate on food intake at 4 hours” value at NPY Y5 receptor (6 mg/kg oral, Group A against Group B after subtracting Group C, 4 hours) came out at 67.0%. For the same molecule, the “mean food intake at 2 hours” value on NPY Y5 receptor (oral administration at 6 mg/kg in mice, ICV NPY Y5 agonist, 2 hours) came to 0.24 ± 0.05 g. Moreover, the “mean food intake at 4 hours” value at NPY Y5 receptor (oral administration at 6 mg/kg in mice, ICV NPY Y5 agonist, 4 hours) came to 0.51 ± 0.06 g. Besides, in data set [3], the clearance amounted to 0.16 L/h/kg and the half-life is 13.6 h.
As for `Cc1c(-c2ccccc2)n[nH]c1[C@H]1CC[C@H](NS(=O)(=O)C(C)(C)C)CC1` [IVb-1], the Kp at 5 h in data set [1] is 1.44. In data set [2], this molecule registered a Kp at 0.5 h of 1.88.
`CC(C)(C)S(=O)(=O)N[C@H]1CC[C@H](c2[nH]nc(-c3ccccc3)c2F)CC1` [IVb-3]: the concentration ratio (Kp) at 5 h in data set [1] came out at 3.14. The same molecule came in with a Kp at 0.5 h in data set [2] of 5.84. Moreover, in data set [3], the clearance amounted to 0.242 L/h/kg and the half-life is 8.14 h.
Turning to `CC(C)(C)S(=O)(=O)N[C@H]1CC[C@H](c2[nH]nc(-c3ccccc3)c2C#N)CC1` [IVb-23], the IC50 at mouse NPY Y5 receptor was 0.37 nM.
Still for that read-out and setting: for `CC(C)(C)S(=O)(=O)N[C@H]1CC[C@H](c2cc3c(-c4ccccn4)cccc3[nH]2)CC1` [Ia-2] the value was 1.1 nM; for `CC(C)(C)S(=O)(=O)N[C@H]1CC[C@H](c2cc3cc(-c4ccccn4)ccc3[nH]2)CC1` [Ia-7], 0.28 nM.
As for `CC(C)(C)S(=O)(=O)N[C@H]1CC[C@H](c2cc3cc(-c4ncccn4)ccc3[nH]2)CC1` [Ia-8], the Kp at 5 h in data set [1] is 2.11. The molecule further came in with a Kp at 0.5 h in data set [2] of 3.55. In addition, in data set [3], the clearance turned out to be 1.07 L/h/kg and the half-life is 1.57 h.
As for `CC(C)(C)S(=O)(=O)N[C@H]1CC[C@H](c2cc3ccc(-c4ccccn4)cc3[nH]2)CC1` [Ia-18], at mouse NPY Y5 receptor, the half-maximal inhibitory concentration (IC50) is 5.5 nM.
With `CC(C)(C)S(=O)(=O)N[C@H]1CC[C@H](c2cc3nc(-c4ccccc4F)ccc3[nH]2)CC1` [Ib-13], in data set [1], the concentration ratio (Kp) at 5 h came to 1.33. Further, the concentration ratio (Kp) at 0.5 h in data set [2] was found to be 2.3.
Consider `CC(C)(C)S(=O)(=O)N[C@H]1CC[C@H](c2cc3nc(-c4ccccn4)ccc3[nH]2)CC1` [Ib-14], for which the IC50 on mouse NPY Y5 receptor amounted to 0.29 nM.
Still for that read-out and setting: for `CC(C)(C)S(=O)(=O)N[C@H]1CC[C@H](c2cc3c(-c4ccccn4)cncc3[nH]2)CC1` [Ib-28] the value was 1.3 nM; for `CC(C)(C)S(=O)(=O)N[C@H]1CC[C@H](c2cc3cc(-c4ccccn4)cnc3[nH]2)CC1` [Ib-32], 0.75 nM.
In the case of `CC(C)(C)S(=O)(=O)N[C@H]1CC[C@H](c2cc3nc(-c4ccc(F)cc4)ncc3[nH]2)CC1` [Ib-35], in data set [1], the Kp at 5 h came out at 0.89. This molecule gave a concentration ratio (Kp) at 0.5 h in data set [2] of 1.91.
With `CC(C)(C)S(=O)(=O)N[C@H]1CC[C@H](c2nc(-c3ccccc3)n[nH]2)CC1` [Va-2], the half-inhibitory concentration (IC50) at mouse NPY Y5 receptor is 2.2 nM. In addition, in data set [3], the clearance was 0.156 L/h/kg and the half-life was 6.4 h.
With `CC(C)(C)S(=O)(=O)N[C@H]1CC[C@H](c2nc(-c3cccc(Cl)c3)n[nH]2)CC1` [Va-5], in data set [3], the clearance amounted to 0.229 L/h/kg and the half-life is 9.1 h.
